In general, mortality refers to the percentage killed.

The results in this text go back to patent US5498632A, “Esters of acyl carnitines with long-chain aliphatic alcohols and pharmaceutical compositions containing same having antibacterial activity” (Sigma-Tau Industrie Farmaceutiche Riunite S.p.A., priority 1992, dated 1996).

For data set [1], the system named is Campylobacter jejuni 84-ISS. The data set is described as follows: MIC in agar (agar dilution). The format is cell-based. On the procedure:
(§1) In this experiment the activity of ST 722 and ST 712 against Campylobacter and Helicobacter was investigated.
(§2) Campylobacter fetus ATCC 27374, Campylobacter coli LI 048, Campylobacter jejuni 84-ISS, and Helicobacter pylori NCTC 11637.
(§3) The culture medium was Columbia agar base supplemented with 7% (V/V) defribinated horse blood (DHB) for Campylobacter strains, and the same medium additioned with Vitox (Oxoid) for Helicobacter strain.
(§4) The Campylobacter and Helicobacter strains, preserved at -80° C. in DHB containing 10% (V/V) glycerol, were thawed and grown, in their respective culture medium, in culture flasks, which were incubated for 48 hours at 37° C. in a 10% CO2 atmosphere. After this first growth cycle, the bacteria were allowed to go through a second growth cycle in the same conditions as above.
(§5) The bacterial "patina" was then harvested by resuspension in 4-5 ml of Mueller-Hinton broth, the turbidity of which was then assessed according to Mc Farland's criteria (BRAY W. E., Clinical Laboratory Methods, 5th Ed. C. V. MOSBY, St. Louis, Mo. 1957).
(§6) The Helicobacter suspension was adjusted to an approximate concentration of 1.0×10^9 and 1.0×10^8 organisms/ml, while the Campylobacter suspension was adjusted to 1.0×10^7 and 1.0×10^6 organisms/ml.
(§7) With a Steers-type multipoint inoculator (STEERS E., FOLTZ E. L., GRAVES S., RIDEN J., 1959. Inocula-replicating apparatus for routine testing of antibacterial susceptibility to antibiotics. Antibiot. Chemoter. 9: 307-311) 1-μl volumes of the above standardized suspensions were spot-transferred into the wells of a 96-well microtiter plate, which had previously been filled with 0.2 ml/well of Mueller-Hinton agar 5% DHB, containing the test substances at different concentrations.
(§8) The plates was then incubated for 48/72 hours at 37° C. in a 10% CO2 atmosphere.
(Agar dilution tests growth on a series of plates holding different concentrations.)

Data set [2] concerns Campylobacter fetus ATCC 27374. The data set is described as follows: MIC in agar (agar dilution). The class given is cell-based. On the procedure:
as §1, §2, §3, §4, §5, §6, §7, §8

Data set [3] concerns Campylobacter coli LI 048. The data set is described as follows: MIC in agar (agar dilution). The class given is cell-based. Here is the method:
as §1, §2, §3, §4, §5, §6, §7, §8

The subject of data set [4] is Helicobacter pylori NCTC 11637. The data set is described as follows: MIC in agar (agar dilution). The class given is cell-based. On the procedure:
as §1, §2, §3, §4
The bacterial "patina" was then harvested by resuspension in 4-5 ml of Mueller-Hinton broth, the turbidity of which was then assessed according to Mc Farland's criteria (BRAY W. E., Clinical Laboratory Methods, 5th Ed. C. V. MOSBY, St. Louis, Mo. 1957). […]
as §7, §8

Data set [5] concerns mice. The data set is described as follows: Assessment of behaviour and mortality in mice (Irwin's method). Particulars: mouse, in vivo, po. Set-up: species or system mouse (male Crl:(CD-1)(ICR)BR). Here is the method: (§9) The assessment of normal behaviour in mice was carried out following S. Irwin's method (Psychopharmacologia, 13, 222 [1968]). This method allows alterations in some behavioural, neurophysiologic and neurovegetative parameters to be detected, which are directly observable by the researcher. The study was conducted using male Crl:(CD-1)(ICR)BR mice (Charles River--Italy) weighing 22-25 g, following oral administration of the compounds suspended in carboxymethylcellulose (0.5% by weight in H2 O) to groups of 4 animals/dose.
(§10) The animals were continously kept under observation for five hours following treatment and twice a day in the subsequent five days. Mortality was also observed during the overall test period.

Test in data set [6]: as above
Further details: species or system mouse (male Crl:(CD-1)(ICR)BR). Particulars: mouse, in vivo; oral, dose 1000, 4 animals/dose. Here is the method: as §9, §10

Data set [7] relates to Proteus vulgaris (UM). The data set is described as follows: MIC in broth, Gram- strains. The class given is cell-based. Particulars: 18 h, read-out: Minimal Inhibitory Concentration (MIC). An outline of the steps: (§11)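 Broth microdilution with serial two-fold dilutions in Mueller-Hinton broth. Inoculum from overnight culture matched to 0.5 McFarland and adjusted to 5.0×10^4 CFU/ml final; plates incubated 18 h at 37 °C in humidified conditions.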

Data set [8] has as its system Enterobacter aerogenes (UM). The data set is described as follows: MIC in broth, Gram- strains. The format is cell-based. The settings on record: Klebsiella aerogenes, 18 h, read-out: Minimal Inhibitory Concentration (MIC). Put shortly: as §11
In data set [9] the test system is Escherichia coli (92 F). The data set is described as follows: MIC in broth, Gram- strains. The format is cell-based. Particulars: 18 h, E. coli (92 F), read-out: Minimal Inhibitory Concentration (MIC). An outline of the steps:
as §11

For data set [10], the system named is Pseudomonas aeruginosa (3 E). Kind of data set: MIC in broth, Gram- strains. The format is cell-based. Particulars: 18 h, read-out: Minimal Inhibitory Concentration (MIC). Put shortly: as §11
Data set [11] has as its system Escherichia coli (76 F). The data set is described as follows: MIC in broth, Gram- strains. The class given is cell-based. Particulars: 18 h, E. coli (76 F), read-out: Minimal Inhibitory Concentration (MIC). Put shortly:
as §11

Data set [12] relates to Klebsiella pneumoniae (7823). The data set is described as follows: MIC in broth, Gram- strains. The format is cell-based. The settings on record: 18 h, read-out: Minimal Inhibitory Concentration (MIC). An outline of the steps:
as §11

Data set [13] relates to Proteus mirabilis (32). Kind of data set: MIC in broth, Gram- strains. Particulars: 18 h, read-out: Minimal Inhibitory Concentration (MIC). The class given is cell-based. Put shortly:
as §11

Data set [14] relates to Klebsiella oxytoca (552). The data set is described as follows: MIC in broth, Gram- strains. The format is cell-based. Particulars: 18 h, read-out: Minimal Inhibitory Concentration (MIC). Put shortly:
as §11

Data set [15] deals with Salmonella typhimurium (D.S.). The data set is described as follows: MIC in broth, Gram- strains. The format is cell-based. The settings on record: Salmonella enterica, 18 h, read-out: Minimal Inhibitory Concentration (MIC). Put shortly: as §11
The test system of data set [16] is Serratia marcescens (A/1). Kind of data set: MIC in broth, Gram- strains. The class given is cell-based. The settings on record: 18 h, read-out: Minimal Inhibitory Concentration (MIC). Put shortly:
as §11

Data set [17] relates to Pseudomonas aeruginosa (10 E). Kind of data set: MIC in broth, Gram- strains. The format is cell-based. Particulars: 18 h, read-out: Minimal Inhibitory Concentration (MIC). An outline of the steps:
as §11

Data set [18] relates to Gram- bacterial strains. Kind of data set: Mean MIC in broth and resistant strain number, Gram- strains. The class given is cell-based. Particulars: 18 h, read-out: Mean MIC values. Put shortly: as §11
Data set [19] concerns 4 Gram- bacterial strains and 1 Gram+ bacterial strain. The data set is described as follows: Broth dilution test of undecyl alcohol. The settings on record: emulsified in Tween 80, up to 400 mcg/ml. The format is cell-based. On the procedure:
(§12) To ascertain whether the antimicrobial activity was due to the undecyl alcohol (a possible product from the hydrolysis of the undecyl esters, such as e.g. ST 722 and ST 712), different "in vitro" tests were performed to overcome the difficulties stemming from the insolubility of the undecyl alcohol in the assay medium.
(§13) To circumvent this problem, three different experimental approaches were chosen obtaining the following results:
3) Undecyl alcohol emulsified in Tween 80 and tested up to the concentration of 400 mcg/ml in broth seeded with 4 Gram- bacterial strains and 1 Gram+ bacterial strain (Broth dilution test).
Background: Dilution methods test growth across graded concentrations, often in twofold steps.

In data set [20] the test system is 4 Gram- bacterial strains. Kind of data set: Agar diffusion test of undecyl alcohol. The format is cell-based. Particulars: absolute (0.05 ml). Here is the method:
as §12, §13
2) Undecyl alcohol absolute (0.05 ml) in agar seeded with 4 Gram- bacterial strains (Agar diffusion test).
In general terms: Agar diffusion results depend on both activity and mobility in agar.

Data set [21] concerns 7 Gram- bacterial strains. The data set is described as follows: Agar dilution test of undecyl alcohol. The class given is cell-based. The settings on record: emulsified in Tween 80, up to 300 mcg/ml. Here is the method:
as §12, §13
1) Undecyl alcohol emulsified in Tween 80 and tested up to the concentration of 300 mcg/ml in agar seeded with 7 Gram- bacterial strains (Agar dilution test).

For the compound `CCCCCCCCCCCOC(=O)CC(C[N+](C)(C)C)OC(=O)C(C)C` [ST 712, Isobutyryl-L-Carnitine Undecyl Ester Chloride], the MIC in data set [1] (I = inoculum of 1.0 × 10^3) was found to be 25 µg/mL; in [1] (II = inoculum of 1.0 × 10^4), 50 µg/mL; in data set [2] (Campylobacter fetus, ATCC27374, I = inoculum of 1.0 × 10^3), 100 µg/mL; in [3] (Campylobacter coli, LI048, I = inoculum of 1.0 × 10^3), 6.25 µg/mL; in data set [4] (Helicobacter pylori, NCTC11637, I = inoculum of 1.0 × 10^5 cells/ml, read-out: MIC in agar), 3.12 µg/mL; in [7] it was 100 µg/mL. The MIC in data set [8] was 25 µg/mL; in data set [9], 25 µg/mL; in data set [10] it was 50 µg/mL; in data set [11], 25 µg/mL; in data set [12], 12.5 µg/mL; in [13], greater than 100 µg/mL. Moreover, the MIC in data set [14] was found to be 12.5 µg/mL; in data set [15] it was 25 µg/mL; in data set [16], 50 µg/mL; in [17], 50 µg/mL; in [18], 36.4 µg/mL. In addition, the figures for the MIC in agar in data set [2] (II = inoculum of 1.0 × 10^4), in data set [3] (II = inoculum of 1.0 × 10^4) and in data set [4] (II = inoculum of 1.0 × 10^6 cells/ml) were 100 µg/mL, 6.25 µg/mL and 3.12 µg/mL, respectively. The “antibacterial activity for Helicobacter and Campylobacter” value in [4] (agar, Helicobacter and Campylobacter strains) is given as “possess an antibacterial activity”. For the same compound, the Symptoms entry in [5] is “NONE”. Besides, the mortality at 120 h in [6] is 0%.
Take `CCCCCCCCCCCO` [Undecyl alcohol, undecyl alcohol]: the antibacterial activity entry in data set [19], in [20] and in [21] was “no activity” in each case.
